Assay [1] relates to THP1-Dual cells (Lucia luciferase under ISG54 promoter). Nature of the assay: THP-1 Dual Lucia reporter gene assay. Format: cell-based, human. The note with it: luminescence signal induction, 20 hours at 37° C. The procedure: THP1-Dual™ cells (InvivoGen #thpd-nfis) were derived from the human THP-1 monocyte cell line by stable integration of the Lucia luciferase gene, a secreted luciferase reporter gene, under the control of an ISG54 (interferon-stimulated gene) minimal promoter in conjunction with five interferon (IFN)-stimulated response elements. On the day of experiment, the cells were plated to a black, 384-well plate (Corning 356697) at 7500 cells/25 μl per well density in growth media (RPMI 1640, 2 mM L-glutamine, 25 mM HEPES, 10% heat-inactivated fetal bovine serum, 100 μg/mL Normocin™, 50 U/mL-50 μg/mL Pen-Strep, 10 μg/mL of blasticidin, and 100 μg/mL of Zeocin). The cell plates were dosed with 62.5 nL of the testing compounds, and then incubated at 37° C. for 20 hours. At the end of the incubation, 15 μL/well of the QUANTI-Luc™ (InvivoGen #rep-qlc1) were added, and luminescence was measured immediately using the LeadSeeker.
For the assay method described above, test compound percent luminescence signal induction, at various concentrations, was calculated relative to untreated and DMSO only treated samples. Compound concentration versus percent signal induction curves were fitted to generate EC50 values. One skilled in the art will appreciate that the values generated as EC50 values are subject to experimental variation.
On the technique in general: A reporter such as luciferase makes a cellular process visible.

The target in another assay is Human STING (Homo sapiens (Human), UniProt Q86WV6, H232R). In words: Human STING TR-FRET assay. It is filed as binding. Conditions: human STING residues 140-379 (H232R), 100 nM; fluorescein labeled ligand 100 nM; 60 minutes at rt. How it is done:
Human STING (accession number GB:BC047779) DNA encoding residues 140-379 (H232R) was cloned into pET28 as N-terminal HIS and C-terminal Avi tagged fusion protein, and a rTEV cleavage site between HIS tag and STING. The sequence was verified before recombinant protein expression using E. coli expression system.
For expression, STING expression vector was transformed into BL21(DE3) cells. The expression was induced by adding IPTG and expressing in 16° C. for 20 hours.
For purification, STING was purified by Nickel affinity resin (Thermo Scientific #25215), followed by TEV enzyme cleavage and Superdex 200 column (GE Healthcare #28-9893-35) purification. For site directed in vitro biotinylation, purified Avi-tagged STING protein was incubated with Biotin (SUPELCO #47868), ATP (SIGMA #A-7699) and BirA enzyme, followed by further purification through a Superdex 200 column (GE Healthcare #28-9893-35). Biotinylation was confirmed by Mass Spectrometry analysis.
40 nL of test compounds in DMSO were added to wells in a white, 384 well microtitre plate (Greiner 784075). 2 uL STING assay buffer (PBS and 0.01% BSA) containing fluorescein labeled ligand (c[G(2′,5′)p-2′-Fluo-AHC-A(3′,5′)p]-Biolog C 195, 100 nM final) and Tb labeled Streptavidin (Streptavidin-Tb cryptate-CisBio 610SATLB) were added. Then 2 uL STING assay buffer containing STING protein (100 nM final) was added and the mixture was incubated at rt for 60 minutes. The plates were then read on a BMG PheraStar Plus reader (LanthaScreen module).
For the assay method described above, test compound percent inhibition, at various concentrations, was calculated relative to untreated and DMSO only treated samples. Compound concentration versus percent inhibition curves were fitted to generate IC50 values. One skilled in the art will appreciate that the values generated either as percentage inhibition at a single concentration or IC50 values are subject to experimental variation.
(In general: In TR-FRET formats the signal depends on donor and acceptor labels being close together.)

This is an account of results in patent US20250262298A1, “STING MODULATOR COMPOUNDS WITH SULFAMATE LINKAGES, AND METHODS OF MAKING AND USING” (TAKEDA PHARMACEUTICAL COMPANY LIMITED, priority 2018, published 2025).

The structures appear in SMILES notation.

Human STING, sequence (Q86WV6 140-379 H232R): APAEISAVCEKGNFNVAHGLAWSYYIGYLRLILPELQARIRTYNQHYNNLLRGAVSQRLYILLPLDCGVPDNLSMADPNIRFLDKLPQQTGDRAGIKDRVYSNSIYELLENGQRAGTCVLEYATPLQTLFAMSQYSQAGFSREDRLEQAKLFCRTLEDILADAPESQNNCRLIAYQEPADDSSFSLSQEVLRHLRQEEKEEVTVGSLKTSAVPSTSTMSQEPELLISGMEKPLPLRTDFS

Broadly, the EC50 is the midpoint of the concentration-response curve. Read a low EC50 as greater potency. As to `Nc1nc2c(ncn2[C@@H]2O[C@@H]3COP(=O)(S)O[C@H]4C[C@H](Oc5ccncn5)C[C@@H]4CNS(=O)(=O)O[C@@H]2C3)c(=O)[nH]1` (single isomer, unassigned) [Compound I-1], in assay [1] (Homo sapiens, THP1-Dual, 20 h), the EC50 was over 25000 nM.

The IC50 is the point on the concentration scale where inhibition reaches its midpoint. Low readings indicate greater potency in that assay, high ones weaker potency in that assay. On Human STING, `Nc1nc2c(ncn2[C@@H]2O[C@@H]3CNS(=O)(=O)O[C@H]4C[C@H](n5cnc6c(N)ncnc65)O[C@@H]4COP(=O)(S)O[C@@H]2C3)c(=O)[nH]1` (single isomer, unassigned) [Compound I-2a] returned a half-maximal inhibitory concentration (IC50) of over 100000 nM. This molecule also gave an EC50 in assay [1] of over 25000 nM.

In the case of `Nc1nc2c(ncn2[C@@H]2O[C@@H]3CNS(=O)(=O)O[C@H]4C[C@H](n5cnc6c(N)ncnc65)O[C@@H]4COP(=O)(S)O[C@@H]2C3)c(=O)[nH]1` (single isomer, unassigned) [Compound I-2b], the 50% inhibitory concentration (IC50) on Human STING fell in the range of 10000 to 100000 nM. For the same molecule, the EC50 in assay [1] was in the range of 10000 to 25000 nM.

In the case of `Nc1nc2c(ncn2[C@@H]2O[C@@H]3COP(=O)(S)O[C@H]4C[C@H](n5cnc6c(N)ncnc65)O[C@@H]4CNS(=O)(=O)O[C@@H]2C3)c(=O)[nH]1` (single isomer, unassigned) [Compound I-3], the IC50 against Human STING was under 1000 nM. Also, in assay [1] (Homo sapiens, THP1-Dual, 20 h), the EC50 is under 1000 nM.

Take `Nc1nc2c(ncn2[C@@H]2O[C@@H]3COP(=O)(S)O[C@H]4[C@@H](F)[C@H](n5cnc6c(N)ncnc65)O[C@@H]4CNS(=O)(=O)O[C@@H]2C3)c(=O)[nH]1` (single isomer, unassigned) [Compound I-4a]: the half-inhibitory concentration (IC50) on Human STING was under 1000 nM. In assay [1] (Homo sapiens, THP1-Dual, 20 h), this molecule registered a half-maximal effective concentration (EC50) of under 1000 nM.

In turn, `Nc1nc2c(ncn2[C@@H]2O[C@@H]3COP(=O)(S)O[C@H]4[C@@H](F)[C@H](n5cnc6c(N)ncnc65)O[C@@H]4CNS(=O)(=O)O[C@@H]2C3)c(=O)[nH]1` (single isomer, unassigned) [Compound I-4b] gave an IC50 at Human STING of under 1000 nM. In addition, the EC50 in assay [1] was under 1000 nM.

Molecule `Nc1nc2c(ncn2[C@@H]2O[C@@H]3CNS(=O)(=O)O[C@H]4C[C@H](n5cnc6cncnc65)C[C@@H]4COP(=O)(S)O[C@@H]2C3)c(=O)[nH]1` (single isomer, unassigned) [Compound I-6] yielded an IC50 against Human STING of over 100000 nM. The EC50 in assay [1] (Homo sapiens, THP1-Dual, 20 h) was over 25000 nM.

In turn, `Nc1nc2c(ncn2[C@@H]2O[C@@H]3COP(=O)(S)O[C@H]4C[C@H](n5nnc6cncnc65)C[C@@H]4CNS(=O)(=O)O[C@@H]2C3)c(=O)[nH]1` (single isomer, unassigned) [Compound I-7] yielded an IC50 on Human STING of 10000 to 100000 nM. In assay [1] (Homo sapiens, THP1-Dual, 20 h), the 50% effective concentration (EC50) was over 25000 nM.

As to `Nc1nc2c(ncn2[C@@H]2O[C@@H]3COP(=O)(S)O[C@H]4C[C@H](n5cnc6cncnc65)C[C@@H]4CNS(=O)(=O)O[C@@H]2C3)c(=O)[nH]1` (single isomer, unassigned) [Compound I-8], the IC50 against Human STING was 1000 to 10000 nM. In assay [1] (Homo sapiens, THP1-Dual, 20 h), this molecule showed a concentration for a half-maximal effect (EC50) of 1000 to 10000 nM.

On Human STING, `Nc1nc2c(ncn2[C@@H]2O[C@@H]3COP(=O)(S)O[C@H]4[C@@H](F)[C@H](n5cnc6cncnc65)O[C@@H]4CNS(=O)(=O)O[C@@H]2[C@@H]3F)c(=O)[nH]1` (single isomer, unassigned) [Compound I-10] yielded an IC50 of under 1000 nM. The EC50 in assay [1] (Homo sapiens, THP1-Dual, 20 h) is under 1000 nM.

Take `Nc1nc2c(ncn2[C@@H]2O[C@@H]3COP(=O)(S)O[C@H]4[C@@H](F)[C@H](n5cnc6cncnc65)O[C@@H]4CNS(=O)(=O)O[C@@H]2C3)c(=O)[nH]1` (single isomer, unassigned) [Compound I-11a]: the IC50 at Human STING was under 1000 nM. In assay [1] (Homo sapiens, THP1-Dual, 20 h), this molecule yielded a half-maximal effective concentration (EC50) of under 1000 nM.

For `Nc1nc2c(ncn2[C@@H]2O[C@@H]3COP(=O)(S)O[C@H]4[C@@H](F)[C@H](n5cnc6cncnc65)O[C@@H]4CNS(=O)(=O)O[C@@H]2C3)c(=O)[nH]1` (single isomer, unassigned) [Compound I-11b], the half-maximal effective concentration (EC50) in assay [1] was under 1000 nM.

`Nc1nc2c(ncn2[C@@H]2O[C@@H]3COS(=O)(=O)N[C@H]4C[C@H](n5cnc6c(N)ncnc65)O[C@@H]4COP(=O)(S)O[C@@H]2C3)c(=O)[nH]1` (single isomer, unassigned) [Compound I-12a] came in with a half-maximal inhibitory concentration (IC50) against Human STING of under 1000 nM. In assay [1] (Homo sapiens, THP1-Dual, 20 h), this molecule gave an EC50 of under 1000 nM.

For the molecule `Nc1nc2c(ncn2[C@@H]2O[C@@H]3COS(=O)(=O)N[C@H]4C[C@H](n5cnc6c(N)ncnc65)O[C@@H]4COP(=O)(S)O[C@@H]2C3)c(=O)[nH]1` (single isomer, unassigned) [Compound I-12b], the IC50 against Human STING is 1000 to 10000 nM. The EC50 in assay [1] (Homo sapiens, THP1-Dual, 20 h) is over 25000 nM.

On Human STING, `Nc1nc2c(ncn2[C@@H]2O[C@@H]3COP(=O)(S)O[C@H]4[C@@H](F)[C@H](n5cnc6cncnc65)O[C@@H]4CNS(=O)(=O)O[C@@H]2[C@@H]3OCC(F)(F)F)c(=O)[nH]1` (single isomer, unassigned) [Compound I-13a] yielded an IC50 of under 1000 nM. Also, in assay [1] (Homo sapiens, THP1-Dual, 20 h), the EC50 is under 1000 nM.

Regarding `Nc1nc2c(ncn2[C@@H]2O[C@@H]3COP(=O)(S)O[C@H]4[C@@H](F)[C@H](n5cnc6cncnc65)O[C@@H]4CNS(=O)(=O)O[C@@H]2[C@@H]3OCC(F)(F)F)c(=O)[nH]1` (single isomer, unassigned) [Compound I-13b], the 50% inhibitory concentration (IC50) on Human STING is under 1000 nM. In addition, the EC50 in assay [1] was under 1000 nM.

As for `Nc1nc2c(ncn2[C@@H]2O[C@@H]3CO[P@](=O)(S)O[C@@H]4[C@@H](CNS(=O)(=O)O[C@@H]2C3)C[C@@H](n2cnc3cncnc32)[C@@H]4F)c(=O)[nH]1` (single isomer, unassigned) [Compound I-14], the IC50 against Human STING is under 1000 nM. In addition, the concentration for a half-maximal effect (EC50) in assay [1] was under 1000 nM.

Regarding `Nc1nc2c(ncn2[C@@H]2O[C@@H]3COP(=O)(S)O[C@H]4[C@@H](F)[C@H](n5cnc6c(=O)[nH]cnc65)O[C@@H]4CNS(=O)(=O)O[C@@H]2C3)c(=O)[nH]1` (single isomer, unassigned) [Compound I-15], the 50% effective concentration (EC50) in assay [1] (Homo sapiens, THP1-Dual, 20 h) is under 1000 nM.

On Human STING, `Nc1nc2c(ncn2[C@@H]2O[C@@H]3COP(=O)(S)O[C@H]4[C@@H](F)[C@H](n5cnc6c(N)ncnc65)O[C@@H]4CNS(=O)(=O)O[C@@H]2[C@@H]3F)c(=O)[nH]1` (single isomer, unassigned) [Compound I-16] came in with a 50% inhibitory concentration (IC50) of under 1000 nM. For the same molecule, the EC50 in assay [1] (Homo sapiens, THP1-Dual, 20 h) is under 1000 nM.

`Nc1nc2c(ncn2[C@@H]2O[C@@H]3COS(=O)(=O)N[C@H]4[C@@H](F)[C@H](n5cnc6c(N)ncnc65)O[C@@H]4COP(=O)(S)O[C@@H]2C3)c(=O)[nH]1` (single isomer, unassigned) [Compound I-17] displayed an IC50 on Human STING of under 1000 nM. In assay [1] (Homo sapiens, THP1-Dual, 20 h), this molecule had an EC50 of under 1000 nM.

For the molecule `Cn1cc([C@@H]2O[C@@H]3CNS(=O)(=O)O[C@@H]4C[C@@H](COP(=O)(S)O[C@H]3[C@H]2F)O[C@H]4n2cnc3c(=O)[nH]c(N)nc32)c2ncnc(N)c21` (single isomer, unassigned) [Compound I-19], the IC50 against Human STING lay in the range of 1000 to 10000 nM. The molecule further returned a concentration giving a half-maximal response (EC50) in assay [1] (Homo sapiens, THP1-Dual, 20 h) of over 25000 nM.

For the molecule `Nc1ncnc2c1ncn2[C@@H]1O[C@@H]2CNS(=O)(=O)O[C@@H]3C[C@@H](COP(=O)(S)O[C@H]2[C@H]1F)O[C@H]3n1cc(F)c2c(=O)[nH]cnc21` (single isomer, unassigned) [Compound I-20], the half-inhibitory concentration (IC50) against Human STING is under 1000 nM. In assay [1] (Homo sapiens, THP1-Dual, 20 h), this molecule displayed a half-maximal effective concentration (EC50) of 1000 to 10000 nM.

Take `Nc1nc2c(ncn2[C@@H]2O[C@@H]3COP(=O)(O)O[C@H]4C[C@H](n5cnc6c(N)ncnc65)O[C@@H]4CNS(=O)(=O)O[C@@H]2C3)c(=O)[nH]1` [Compound I-5, 2-amino-9-[(5S,7R,8R,12aR,14R,15aS)-14-(6-amino-9H-purin-9-yl)-2-hydroxy-2,10,10-trioxidodecahydro-5,8-methanofuro[2,3-m][1,3,6,9,10,11,2]tetraoxathiazaphosphacyclotetradecin-7-yl]-1,9-dihydro-6H-purin-6-one]: on Human STING, the IC50 was 1000 to 10000 nM. In addition, the EC50 in assay [1] (Homo sapiens, THP1-Dual, 20 h) was under 1000 nM.
